# According to patent US20060009433A1, “Neuroprotective spirostenol pharmaceutical compositions” (priority 2003, published 2006):
# “Also recorded” adds a separate entry of the source.
# Assays:
# NT2 cells [1] = assay: NT2 cell differentiation, phase-contrast morphology; format: cell-based, human; details: 25 μM; 3, 6 and 12 days (comparators 6 days)
# NT2 cells [2] = assay: BrdU assay, NT2 cell proliferation; format: cell-based, human; details: 50 μM
# rat PC12 neuronal cells = assay: MTT assay, Aβ1-42-induced cytotoxicity in PC12 cells (Example I); details: MTT
# [3] = tested on: PC12 cells (rat pheochromocytoma neurons); assay: MTT cytotoxicity assay, Aβ-induced neurotoxicity in PC12 cells (Example II); format: cell-based; details: for neuroprotective effect compared with SP222: 0.1 μM Aβ; for neuroprotection against Aβ-induced neurotoxicity (structure/activity discussion): PC12 cells
# Experimental: (§1) PC12 cells (rat pheochromocytoma neurons) from ATCC (Manassas, Va.) were cultured at 37° C. and 5% CO2 in RPMI 1640 medium devoid of glutamine and supplemented with 10% fetal bovine serum and 5% horse serum. Yao Z, Drieu K and Papadopoulos V., The Gingko biloba extract EGb 761 rescues PC12 neuronal cells from β-amyloid-induced cell death by inhibiting the formation of (3-amyloid-derived diffusible neurotoxic ligands, Brain Res, 889, 181-190 (2001). Cells were seeded in 96-well plates (8×10^4 cells/well). After an overnight period of incubation, increasing concentrations of aggregated Aβ (0.1, 1 and 10 μM) were added to the cells in the presence or absence of the indicated concentrations of the SP compounds to be tested. After 72-hours incubation time various parameters, markers of cell viability, were determined. Mouse MA-10 tumor Leydig cells were maintained at 37° C. in DMEM/Ham's F12 (Biofluids, Rockville, Md.) medium supplemented with 5% heat-inactivated fetal calf serum and 2.5% horse serum in 5% CO2. Cells were plated on 96-well plates at the density of 2.5×10^4 cells/well for overnight. The cells were stimulated with the indicated concentrations of the various SP compounds in 0.2 ml/well serum-free medium for 2 hours. The culture medium was collected and tested for progesterone production by radioimmunoassay.
# The cellular toxicity of Aβ was assessed using the 3-(4,5-dimethylthiazol-2-yl)-2,5-diphenyl tetrazolium bromide (MTT) assay (Trevigen, Gaithersburg, Md.). Briefly, 10 μl of the MTT solution were added to the cells cultured in 100 μl medium. After an incubation period of 4 hours, 100 μl of detergent were added and cells were incubated overnight at 37° C. Formazan blue formation was quantified at 600 nm and 690 nm using the Victor quantitative detection spectrophotometer (EGG-Wallac, Gaithersburg, Md.) and the results expressed as (DO600-DO690). […] Liu Y and Schubert D, Steroid hormones block amyloid fibril-induced 3-(4,5-dimethylthiazol-2-yl)-2,5-diphenyltetrazolium bromide (MTT) formazan exocytosis: relationship to neurotoxicity, J. Neurochem., 19, 1639-1662 (1998). For that reason, additional cytotoxicity and cell viability assays were used.
# Yao et al., J. Neurochem., 83, 1110-1119 (2002); and Yao et al., The Gingko biloba extract EGb 761 rescues PC12 neuronal cells from β-amyloid-induced cell death by inhibiting the formation of β-amyloid-derived diffusible neurotoxic ligands, Brain Res., 889, 181-190 (2001). To stay close to the concentrations of Aβ present in AD brain, 0.1-10 μM concentrations of Aβ were used. The compounds tested for their neuroprotective properties were examined at 30 and 50 μM concentrations (FIGS. 9-15).
# PC12 cells = assay: Cellular ATP levels (ATPLite-M) in Aβ-treated PC12 cells; format: cell-based, rat; details: 0.1 and 1.0 μM Aβ
# Experimental: as §1
# Cellular ATP concentrations were measured using the ATPLite-M™ luminescence assay (Packard BioSciences Co.). For this assay, cells were cultured on black 96-well ViewPlate™ and the ATP concentrations were measured on a TopCount NXT™ counter (Packard BioSciences Co.) following the recommendations of the manufacturer.
# Aβ = target: T1, Aβ (Homo sapiens, UniProt P05067); assay: CPBBA displacement of radiolabeled 22R-hydroxycholesterol from Aβ (Example II); format: binding; details: 100 μM unlabeled compound; 50 μM Aβ
# T1 construct: Aβ1-42 peptide was purchased from American Peptide Co; purchased American Peptide Co. (Sunnyvale, Calif.)
# Experimental: At the end of the incubation time, samples were separated by 1.5% agarose (Type I-B) gel electrophoresis under native conditions and transferred to nitrocellulose membrane (Schleicher&Schuell, Keene, N.H.) in 10×SSC buffer. The membrane was exposed to tritium-sensitive screen and analyzed by phosphoimaging using the Cyclone Storage phosphor system (Packard BioScience). Image-densitometric analysis was performed using the OptiQuant software (Packard BioScience). […] Low molecular weight unincorporated 22R-hydroxycholesterol and derivatives are separated and eliminated during electrophoresis.
# human NT2 cells = assay: Trypan blue dye exclusion assay, NT2 cells; format: cell-based; details: 25 μM steroid, 72 hours
# Experimental: (§2) Rat PC12 cells were cultured as previously described. Yao et al., Brain Res. 889, 181-190 (2001). Human NT2 precursor (Ntera2/D1 teratocarcinoma) cells were obtained from Stratagene (La Jolla, Calif.) and cultured following the instructions of the supplier. Differentiated human NT2 neurons (NT2N) were obtained after treatment of the NT2 precursor cells with retinoic acid. Andrews, Dev. […] Aβ was dissolved in media and used either in the aggregated (left overnight at 4° C.) or soluble (containing oligomers such as dimers and tetramers) forms examined by electrophoresis as previously described. Yao et al., Brain Res. (2001). […] Id. Cell viability was measured using the trypan blue exclusion method as previously described. Id. In brief, for these studies, cells were treated for 72 hours with steroids in the presence or absence of increasing concentrations of Aβ. At the end of the incubation, the cells were washed three times with PBS and incubated for 15 minutes with 0.1% trypan blue stain solution at room temperature. After washing three times with PBS, 0.1 N NaOH was added to the cells and trypan blue staining was quantified using the Victor quantitative detection spectrophotometer (EGG-Wallac, Gaithersburg, Md.) at 450 nm. Cell protein levels were determined in the same samples by the method of Bradford (Bradford, Anal. Biochem., 72, 248-254 (1976)), where coomassie blue staining is detected at 590 nm.
# (§3) The results obtained from using MTT assay were further confirmed with the trypan blue dye exclusion assay. […] Levels of viability were measured using the trypan blue assay as described under Materials and Methods. Results are expressed as fold trypan blue stained cells per total cell protein over control untreated cells. Results shown are means±SD (n=6-12).
# rat PC12 cells = assay: Trypan blue dye exclusion assay, PC12 cells (Example I); format: cell-based; details: 100 μM steroid, 72 hours
# Experimental: as §2, §3
# [4] = MTT, compounds at 30 and 50 μM, 72 hours
# T1 sequence (P05067 672-713): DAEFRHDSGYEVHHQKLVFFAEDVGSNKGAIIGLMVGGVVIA
molecule,measurement,setting,value
CC(=O)[C@H]1CC[C@H]2[C@@H]3CCC4=CC(=O)CC[C@]4(C)[C@H]3CC[C@]12C [progesterone],effect on NT2 cell morphology (differentiation),NT2 cells [1],could not be replicated
same,NT2 cell proliferation at 50 μM,NT2 cells [2],significantly inhibited
"CC(=O)[C@@]1(O)CC[C@H]2[C@@H]3CC=C4C[C@@H](O)CC[C@]4(C)[C@H]3CC[C@@]21C [17α-hydroxypregnenolone, 5-pregnen-3β, 17α-diol-20-one]","PC12 cell viability, steroid alone",rat PC12 neuronal cells; absence of Aβ,toxic to the cells
"CC(C)CCC[C@@H](C)[C@H]1CC[C@H]2[C@@H]3CC=C4C[C@@H](O)CC[C@]4(C)[C@H]3CC[C@]12C [cholesterol, 5-cholesten-3β-ol]",effect on toxicity of low concentrations of Aβ,rat PC12 neuronal cells,accentuated the toxic effect of low concentrations of Aβ
same,neuroprotective effect against Aβ-induced neurotoxicity,rat PC12 neuronal cells; Aβ1-42,could not be replicated
same,effect on NT2 cell morphology (differentiation),NT2 cells [1],could not be replicated
"(22R,25S)-(20α)-spirost-5-en-3β-yl succinate [SP236]",neuroprotective effect compared with SP222,[3]; MTT,significantly more robust effect than SP222
same,neuroprotection against 0.1 μM Aβ-induced neurotoxicity,[3]; [4],displayed neuroprotective activity
same,neuroprotection against 1 μM Aβ-induced neurotoxicity,[3]; [4],maintained their neuroprotective properties
same,neuroprotection against 10 μM Aβ-induced neurotoxicity,[3]; [4],exhibited neuroprotective activity
same,neuroprotection against Aβ-induced neurotoxicity (structure/activity discussion),[3],active against higher Aβ concentrations
same,reversal of Aβ-induced decrease in ATP levels,PC12 cells,"able to reverse; also recorded: blocked, although in part"
(20ζ)-26-acetylamino-(22ζ)-ethoxyfurost-5-en-3ζ-yl acetate [SP228],neuroprotection against 0.1 μM Aβ-induced neurotoxicity,[3]; [4],displayed neuroprotective activity
"C[C@H]1CC[C@@]2(OC1)O[C@H]1C[C@H]3[C@@H]4CC=C5CC(O)CC[C@]5(C)[C@H]4CC[C@]3(C)[C@H]1[C@@H]2C (stereo partly drawn) [SP231, (22R,25S)-(20ζ)-spirost-5-en-3ζ-ol]",neuroprotection against Aβ-induced neurotoxicity (structure/activity discussion),[3],only SP235 is protective
"CC(=O)OC1CC[C@@]2(C)C(=CC[C@H]3[C@@H]4CC(OC(C)=O)[C@H]([C@H](C)C(CCC(C)CN(C(C)=O)C(C)=O)OC(C)=O)[C@@]4(C)CC[C@@H]32)C1 (some centres unmarked) [SP237, 26-diacetylamino-(22ζ)-acetoxy-(16ζ)-acetoxy-cholest-5-en-yl acetate]",displacement of radiolabeled 22R-hydroxycholesterol binding to Aβ,Aβ,46%
same,neuroprotection against 0.1 μM Aβ-induced neurotoxicity,[3]; [4],displayed neuroprotective activity
"C[C@]12CC[C@H](O)CC1=CC[C@@H]1[C@@H]2CC[C@]2(C)C(=O)CC[C@@H]12 [DHEA, 5-androsten-3β-ol-17-one]","PC12 cell viability, steroid alone at 100 μM",rat PC12 neuronal cells; 100 μM steroid,positive effect on cell viability
same,effect on NT2 cell morphology (differentiation),NT2 cells [1],could not be replicated
same,rescue from Aβ1-42-induced cell death,human NT2 cells,had no effect
same,rescue from Aβ25-35-induced cell death,human NT2 cells,Neither 22R-hydroxycholesterol nor DHEA could rescue
same,rescue from Aβ1-42-induced cell death,rat PC12 cells,protected
same,rescue from Aβ25-35-induced cell death,rat PC12 cells,Neither 22R-hydroxycholesterol nor DHEA could rescue
"C[C@H]1CC[C@@]2(OC1)O[C@H]1C[C@H]3[C@@H]4CC=C5C[C@@H](O)CC[C@]5(C)[C@H]4CC[C@]3(C)[C@H]1[C@@H]2C [SP235, (22R,25S)-(20α)-spirost-5-en-3β-ol]",neuroprotective effect compared with SP222,[3]; MTT,significantly more robust effect than SP222
same,neuroprotection against 0.1 μM Aβ-induced neurotoxicity,[3]; [4],displayed neuroprotective activity
same,neuroprotection against 10 μM Aβ-induced neurotoxicity,[3]; [4],exhibited neuroprotective activity
same,neuroprotection against Aβ-induced neurotoxicity (structure/activity discussion),[3],limited neuroprotection acting only against 0.1 μM Aβ
same,reversal of Aβ-induced decrease in ATP levels,PC12 cells,did not block
"(20α)-25ζ-methyl-N-paratoluenesulfonyl-(22R,26)-azacyclofurost-5-en-3ζ-yl paratoluenesulfonate [SP229]",neuroprotection against 0.1 μM Aβ-induced neurotoxicity,[3]; [4],displayed neuroprotective activity
"CC1CCC2(OC1)OC1CC3C4CC=C5CC(O)C(O)CC5(C)C4CCC3(C)C1C2C [SP227, (22R,25ζ)-(20α)-spirost-5-en-(2α,3ζ)-diol]",displacement of radiolabeled 22R-hydroxycholesterol binding to Aβ,Aβ,38%
"(20ζ)-25ζ-methyl-N-acetyl-(22R,26)-azacyclofurost-5-en-3ζ-ol [SP226]",displacement of radiolabeled 22R-hydroxycholesterol binding to Aβ,Aβ,65%
same,neuroprotection against Aβ-induced neurotoxicity (structure/activity discussion),[3],did not offer neuroprotection
"CC1CCC2(OC1)OC1CC3C4CC=C5CC(OC(=O)c6ccccc6)CCC5(C)C4CCC3(C)C1C2C [SP232, (22R,25ζ)-(20α)-spirost-5-en-3β-yl benzoate]",neuroprotection against Aβ-induced neurotoxicity (structure/activity discussion),[3],not effective in neuroprotection
